# According to BindingDB's records for patent US20250346600 (Moma Therapeutics, 2025):
# Columns and labels:
# [1] = biological target: T1, Bifunctional 3'-5' exonuclease/ATP-dependent helicase WRN [2-1432] (UniProt Q14191); assay: WRN activity Format A
# T1 construct: 2-1432
# Experimental: Full length WRN protein (aa 2-1432) (production described separately) was used for the biochemical activity assays. The 39-mer ssDNA “C6.18” ([…]) was purchased from IDT and used as a substrate. Quantification of ATP hydrolysis was evaluated using the ADP-Glo assay kit (Promega, Madison, WI). An enzyme titration time-course was performed to determine the optimal assay conditions. […] To evaluate the inhibitory effects of the compounds, 11-point 3-fold serial dilutions were prepared in DMSO.50nL of each concentration in duplicate was preincubated for 30 minutes in a 384-well microplate (Greiner #784075) with 5μL of 0.5nM WRN in assay buffer. The reaction was initiated by adding 5μL of 200nM C6.18 DNA with 20μM ATP and was allowed to proceed for 30 minutes at room temperature. The reaction was stopped with 10μL ADP-Glo reagent for 1 hour to remove unreacted ATP. Lastly, 20μL ATP detection reagent was added and incubated for 1 hour to generate the luminescence signal. Control wells included “high controls” with no inhibition (DMSO, no compound) and “low controls” with maximum inhibition (no WRN). Luminescence was recorded on a PHERAstar (BMG Labtech, Ortenberg, Germany). Data was fit using the “Smart Fit” method within the Genedata Screener Software (Basel, Switzerland) to obtain IC50 values using four-parameter fits. Reported IC50s are the geometric means of at least two independent trials.
# [2] = biological target: T1, Bifunctional 3'-5' exonuclease/ATP-dependent helicase WRN [2-1432]; assay: WRN activity Format B
# Experimental: The 39-mer ssDNA “C6.18” ([…]) was purchased from IDT and used as a substrate. Quantification of ATP hydrolysis was evaluated using the ADP-Glo assay kit (Promega, Madison, WI). An enzyme titration time-course was performed to determine the optimal assay conditions. […] Data was fit using the “Smart Fit” method within the Genedata Screener Software (Basel, Switzerland) to obtain IC50 values using four-parameter fits. Reported IC50s are the geometric means of at least two independent trials.
# T1 sequence (Q14191 2-1432): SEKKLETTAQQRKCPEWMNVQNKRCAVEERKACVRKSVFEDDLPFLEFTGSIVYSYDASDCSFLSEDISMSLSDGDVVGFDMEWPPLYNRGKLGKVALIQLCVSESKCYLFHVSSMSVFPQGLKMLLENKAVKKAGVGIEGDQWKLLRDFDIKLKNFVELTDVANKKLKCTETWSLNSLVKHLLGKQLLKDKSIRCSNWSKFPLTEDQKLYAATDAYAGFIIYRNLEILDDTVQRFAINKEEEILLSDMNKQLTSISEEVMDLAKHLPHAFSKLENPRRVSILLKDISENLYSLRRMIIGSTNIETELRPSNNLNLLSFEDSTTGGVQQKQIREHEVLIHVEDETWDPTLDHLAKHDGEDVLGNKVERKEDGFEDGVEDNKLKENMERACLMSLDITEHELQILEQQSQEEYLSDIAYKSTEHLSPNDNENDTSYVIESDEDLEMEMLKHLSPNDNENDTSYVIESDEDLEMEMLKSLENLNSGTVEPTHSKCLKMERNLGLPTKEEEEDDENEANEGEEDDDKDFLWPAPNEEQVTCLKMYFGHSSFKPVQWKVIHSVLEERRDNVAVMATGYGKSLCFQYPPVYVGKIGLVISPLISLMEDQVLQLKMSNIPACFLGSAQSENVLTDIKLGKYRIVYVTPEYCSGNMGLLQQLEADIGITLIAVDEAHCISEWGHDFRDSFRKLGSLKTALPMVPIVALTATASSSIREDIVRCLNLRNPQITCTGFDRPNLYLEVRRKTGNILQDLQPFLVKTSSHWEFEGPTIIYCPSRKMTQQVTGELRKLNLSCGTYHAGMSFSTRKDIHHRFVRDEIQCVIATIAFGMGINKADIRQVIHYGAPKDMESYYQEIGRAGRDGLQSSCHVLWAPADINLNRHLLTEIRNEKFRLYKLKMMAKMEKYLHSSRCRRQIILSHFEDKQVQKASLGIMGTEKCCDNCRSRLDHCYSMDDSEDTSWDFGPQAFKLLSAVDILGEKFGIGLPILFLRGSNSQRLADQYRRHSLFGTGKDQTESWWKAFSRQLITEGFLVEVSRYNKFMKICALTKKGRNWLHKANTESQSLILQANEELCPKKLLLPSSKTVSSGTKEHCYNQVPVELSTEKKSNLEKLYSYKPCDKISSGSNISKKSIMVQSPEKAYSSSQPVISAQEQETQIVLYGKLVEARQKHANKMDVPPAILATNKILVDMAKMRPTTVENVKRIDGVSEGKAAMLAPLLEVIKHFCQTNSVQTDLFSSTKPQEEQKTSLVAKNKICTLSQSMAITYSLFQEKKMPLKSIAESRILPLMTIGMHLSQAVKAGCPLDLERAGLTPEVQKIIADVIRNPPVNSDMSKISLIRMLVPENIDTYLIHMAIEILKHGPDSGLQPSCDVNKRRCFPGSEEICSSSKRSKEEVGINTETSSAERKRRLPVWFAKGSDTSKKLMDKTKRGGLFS
SMILES,IC50 [1],IC50 [2]
"C=CC(=O)N1CCc2nn(-c3ccc(C4CC4)cc3)c3c2C(C1)N(C(=O)C1=CN=C2N=C(C(F)(F)F)N=C2C1)CC3 (stereo not drawn) [US20250346600, Compound 124]",in the range around 0.035 µM,–
"C=CC(=O)N1CCOc2nn(-c3ccc(C4CCC4)cc3O)c3c2C(C1)N(C(=O)C1=CC2=NN=C(Br)C2=CC1)CC3 (stereo not drawn) [US20250346600, Compound 40]",< 0.0015 µM,in the range around 0.035 µM
